Values quoted from earlier work, collected in patent US20090047371A1, “PHARMACEUTICAL COMPOSITION COMPRISING CURCUMIN AND RESVERATROL AND USES THEREOF IN MEDICAL FIELD” (SAFI INVESTMENT HOLDING AG, priority 2005, published 2009).

Test system: hair loss
Details: many cases in India and in Europe where Curcumin has been employed

COc1cc(/C=C/C(=O)CC(=O)/C=C/c2ccc(O)c(OC)c2)ccc1O [Curcumin, curcumin]
effect on hair: any effect on hair has never been reported
